Residue numbers refer to the chain shown, from its start. Names may count otherwise. “Also recorded” adds a separate entry of the source.

In assay [1] the test system is 'mutant atbg1'. Description: Leaf colour of 'mutant atbg1' after exogenous ABA. The class given is in vivo, Arabidopsis thaliana. To be noted: exogenous ABA applied to one week cultivated 'mutant atbg1', 3 more days of culture. The source says:
Exogenous ABA was applied to one week cultivated ‘mutant atbg1’, followed by culture for 3 more days.

Assay [2] deals with 'mutant atbg1'. Description: Stomatal size of 'mutant atbg1' at night after ABA treatment. The class given is in vivo, Arabidopsis thaliana. To be noted: 10 μM and 50 μM ABA at 23 o'clock, measured at 24 o'clock, n=200. The protocol:
(§1) Particularly, the transgenic plant was cultured at 20° C. with 70% relative humidity under 16/8 hour-light/dark cycle and the stomatal sizes were measured at noon and midnight (n=150) (FIG. 13).
(§2) To investigate the effect of exogenous ABA on stomatal closure, the ‘mutant atbg1’ plant was treated with 10 μM and 50 μM of ABA at 23 o'clock and stomatal sizes were measured at 24 o'clock (FIG. 14). Control group was treated with 100 μM of NAME (L-nitroargininemethylester), known as […], during the time of stomatal disclosure, that is for 10 hours from 4 o'clock, and stomatal sizes were measured at midnight.

Assay [3] deals with wild type. The assay is described as follows: Stomatal size of wild type at midnight after NAME treatment. The class given is in vivo, Arabidopsis thaliana. To be noted: 100 μM NAME for 10 hours from 4 o'clock, measured at midnight. The protocol:
as §1, §2

For assay [4], the system named is AtBG1:HA. The assay is described as follows: AtBG1 glycosylation in protoplasts, blotting with anti-HA antibody. The class given is cell-based, Arabidopsis thaliana. To be noted: anti-HA blot. The source says: To confirm the above result that AtBG1 localizes to ER, the present inventors examined AtBG1 glycosylation. Glycosylation of protein produces glycan and this glycan moiety of the protein localizing to the ER is sensitive to both endo-H and PNGase F, meaning the glycan moiety is easily digested by endo-H and PNGase F enzyme activities (Kuznetsov G. et al., J. Biol. Chem. 268: 2001, 1993). Tunicamycin is an inhibitor of the glycosylation.
Protein extract obtained from protoplasts of AtBG1:HA transfected plant and treated with endo-H and PNGase F (not treated with tunicamycin), protein extract obtained from protoplasts of tunicamycin treated Arabidopsis thaliana transformed with AtBG1 and protein extract obtained from protoplasts of tunicamycin-non-treated Arabidopsis thaliana transformed with AtBG1 were examined by blotting using anti-HA antibody.

A short description of assay [5]: ABA-GE hydrolysis by immunopurified AtBG1 proteins, ABA fraction by HPLC and ELISA. Format: biochemical, Arabidopsis thaliana. To be noted: 100 mM citrate buffer pH 5.5, 37° C., one and half hours. A general note: In an ELISA, binding on a coated surface is turned into a signal by an enzyme label.

For `CC1=CC(=O)CC(C)(C)[C@@]1(O)/C=C/C(C)=C\C(=O)O` [ABA, abscisic acid], in assay [1], the leaf colour phenotype result was “yellow leaf turned into normal green”. In addition, in assay [2], the “stomatal closure in the night” value was “induced stomatal closure in the night”.

With `COC(=O)[C@@H](N)CCCNC(=N)N[N+](=O)[O-]` [NAME, L-nitroargininemethylester], in assay [3], the stomatal closure result is on record as “defects in stomatal closure”.

Take Tunicamycin: the “size of AtBG1:HA versus tunicamycin-non-treated protoplasts” value in assay [4] is recorded as “smaller”.

B1: AtBG1:HA: HA (hemagglutinin) tagged wild type AtBG1, Arabidopsis thaliana β-glucosidase 1 (protein)
chain: QGPVCGAGLPDKFSRLNFPEGFIWGTATAAFQVEGAVNEGCRGPSMWDTFTKKFPHRCENHNADVAVDFYHRYKEDIQLMKDLNTDAFRLSIAWPRIFPHGRMSKGISKVGVQFYHDLIDELLKNNIIPLVTVFHWDTPQDLEDEYGGFLSGRIVQDFTEYANFTFHEYGHKVKHWITFNEPWVFSRAGYDNGKKAPGRCSPYIPGYGQHCQDGRSGYEAYQVSHNLLLSHAYAVDAFRNCKQCAGGKIGIAHSPAWFEPQDLEHVGGSIERVLDFILGWHLAPTTYGDYPQSMKDRVGHRLPKFTEAEKKLLKGSTDYVGMNYYTSVFAKEISPDPKSPSWTTDSLVDWDSKSVDGYKIGSKPFNGKLDVYSKGLRYLLKYIKDNYGDPEVIIAENGYGEDLGEKHNDVNFGTQDHNRKYYIQRHLLSMHDAICKDKVNVTGYFVWSLMDNFEWQDGYKARFGLYYIDFQNNLTRHQKVSGKWYSEFLKPQFPTSKLREEL
modifications: left off: small tags and cut ends
With B1, the “ABA generated from ABA-GE (HPLC peak / ELISA detection)” value in assay [5] is listed as “novel peaks at the position for ABA; also recorded: hydrolyzes ABA-GE to form ABA”; in assay [5] (listed as wild type AtBG1 protein), “high level of ABA”.

B2: AtBG1[E207Q]:HA: HA tagged AtBG1 with substitution mutation at position 207, an active site of β-glycosidase (protein, UniProt Q9SE50 27-528, looked up, variant E207Q)
Beta-D-glucopyranosyl …: B1 chain with E181Q
modifications: HA tag
Regarding B2, the “ABA generated from ABA-GE (HPLC peak / ELISA detection)” value in assay [5] is on record as “novel peaks at the position for ABA”. The “amount of ABA released from ABA-GE, relative to that of the wild type” value in assay [5] (ABA peaks quantified by ELISA with anti-ABA antibody) came to 20%.
